{"source": "paper PMC12102759", "about": "(Protein Science : A Publication of the Protein Society, 2025)", "system": "PABPC1 PABC", "type": "binding, human", "settings": "DMS-BM library, bait PABPC1 PABC, row aa = residue at this position; for DMS-derived PSSM value, position L4: L = wild type", "key": {"[1]": {"settings": "prey ATXN2, peptide KSTLNPNAKEFNPRSF"}, "[2]": {"settings": "prey ATXN2, peptide KSTLNPNAKEFNPRSF, N = wild type"}, "[3]": {"settings": "prey ATXN2, TLNPNAKEFNPRSF(averaged) over the two overlapping peptides, P = wild type"}, "[4]": {"settings": "prey ATXN2, peptide TLNPNAKEFNPRSFSQ, P = wild type"}, "[5]": {"settings": "prey ATXN2, TLNPNAKEFNPRSF(averaged) over the two overlapping peptides, E = wild type"}, "[6]": {"settings": "prey ATXN2, peptide KSTLNPNAKEFNPRSF, T = wild type"}, "[7]": {"settings": "prey ATXN2, peptide TLNPNAKEFNPRSFSQ, N = wild type"}, "[8]": {"settings": "prey ATXN2, peptide TLNPNAKEFNPRSFSQ, R = wild type"}, "[9]": {"settings": "prey ATXN2, peptide KSTLNPNAKEFNPRSF, F = wild type"}, "[10]": {"settings": "prey ATXN2, peptide KSTLNPNAKEFNPRSF, A = wild type"}, "[11]": {"settings": "prey ATXN2, TLNPNAKEFNPRSF(averaged) over the two overlapping peptides, K = wild type"}, "[12]": {"settings": "prey ATXN2, TLNPNAKEFNPRSF(averaged) over the two overlapping peptides, T = wild type"}}, "data": [{"substance": "TLNPNAKEFNPRSF(averaged) S13E (TLNPNAKEFNPREF)", "values": [{"measurement": "DMS-derived PSSM value (averaged), position S13", "setting": "prey ATXN2, TLNPNAKEFNPRSF(averaged) over the two overlapping peptides, S = wild type", "result": 0.01358}]}, {"substance": "KSTLNPNAKEFNPRSF L4E (KSTENPNAKEFNPRSF)", "values": [{"measurement": "DMS-derived PSSM value, position L4", "setting": "[1]", "result": 0}]}, {"substance": "TLNPNAKEFNPRSFSQ T1K (KLNPNAKEFNPRSFSQ)", "values": [{"measurement": "DMS-derived PSSM value, position T1", "setting": "prey ATXN2, peptide TLNPNAKEFNPRSFSQ, T = wild type", "result": 0.03828}]}, {"substance": "KSTLNPNAKEFNPRSF N5S (KSTLSPNAKEFNPRSF)", "values": [{"measurement": "DMS-derived PSSM value, position N5", "setting": "[2]", "result": 0.0715}]}, {"substance": "TLNPNAKEFNPRSF(averaged) P4N (TLNNNAKEFNPRSF)", "values": [{"measurement": "DMS-derived PSSM value (averaged), position P4", "setting": "[3]", "result": 0.0005247}]}, {"substance": "TLNPNAKEFNPRSFSQ P11Q (TLNPNAKEFNQRSFSQ)", "values": [{"measurement": "DMS-derived PSSM value, position P11", "setting": "[4]", "result": 0.01526}]}, {"substance": "TLNPNAKEFNPRSF(averaged) E8M (TLNPNAKMFNPRSF)", "values": [{"measurement": "DMS-derived PSSM value (averaged), position E8", "setting": "[5]", "result": 0.02105}]}, {"substance": "KSTLNPNAKEFNPRSF T3F (KSFLNPNAKEFNPRSF)", "values": [{"measurement": "DMS-derived PSSM value, position T3", "setting": "[6]", "result": 0.07157}]}, {"substance": "TLNPNAKEFNPRSFSQ N3G (TLGPNAKEFNPRSFSQ)", "values": [{"measurement": "DMS-derived PSSM value, position N3", "setting": "[7]", "result": 0}]}, {"substance": "TLNPNAKEFNPRSF(averaged) E8N (TLNPNAKNFNPRSF)", "values": [{"measurement": "DMS-derived PSSM value (averaged), position E8", "setting": "[5]", "result": 0.07264}]}, {"substance": "TLNPNAKEFNPRSFSQ R12A (TLNPNAKEFNPASFSQ)", "values": [{"measurement": "DMS-derived PSSM value, position R12", "setting": "[8]", "result": 0.004965}]}, {"substance": "KSTLNPNAKEFNPRSF T3E (KSELNPNAKEFNPRSF)", "values": [{"measurement": "DMS-derived PSSM value, position T3", "setting": "[6]", "result": 0.2365}]}, {"substance": "TLNPNAKEFNPRSF(averaged) P4H (TLNHNAKEFNPRSF)", "values": [{"measurement": "DMS-derived PSSM value (averaged), position P4", "setting": "[3]", "result": 0.02342}]}, {"substance": "TLNPNAKEFNPRSFSQ E8V (TLNPNAKVFNPRSFSQ)", "values": [{"measurement": "DMS-derived PSSM value, position E8", "setting": "prey ATXN2, peptide TLNPNAKEFNPRSFSQ, E = wild type", "result": 0.09834}]}, {"substance": "KSTLNPNAKEFNPRSF P6R (KSTLNRNAKEFNPRSF)", "values": [{"measurement": "DMS-derived PSSM value, position P6", "setting": "prey ATXN2, peptide KSTLNPNAKEFNPRSF, P = wild type", "result": 0}]}, {"substance": "KSTLNPNAKEFNPRSF F16S (KSTLNPNAKEFNPRSS)", "values": [{"measurement": "DMS-derived PSSM value, position F16", "setting": "[9]", "result": 0.02635}]}, {"substance": "TLNPNAKEFNPRSFSQ P4Y (TLNYNAKEFNPRSFSQ)", "values": [{"measurement": "DMS-derived PSSM value, position P4", "setting": "[4]", "result": 0}]}, {"substance": "KSTLNPNAKEFNPRSF N5W (KSTLWPNAKEFNPRSF)", "values": [{"measurement": "DMS-derived PSSM value, position N5", "setting": "[2]", "result": 0}]}, {"substance": "KSTLNPNAKEFNPRSF A8S (KSTLNPNSKEFNPRSF)", "values": [{"measurement": "DMS-derived PSSM value, position A8", "setting": "[10]", "result": 0}]}, {"substance": "TLNPNAKEFNPRSFSQ N3T (TLTPNAKEFNPRSFSQ)", "values": [{"measurement": "DMS-derived PSSM value, position N3", "setting": "[7]", "result": 0.01993}]}, {"substance": "TLNPNAKEFNPRSF(averaged) K7P (TLNPNAPEFNPRSF)", "values": [{"measurement": "DMS-derived PSSM value (averaged), position K7", "setting": "[11]", "result": 0.005399}]}, {"substance": "TLNPNAKEFNPRSF(averaged) P11R (TLNPNAKEFNRRSF)", "values": [{"measurement": "DMS-derived PSSM value (averaged), position P11", "setting": "[3]", "result": 0.003178}]}, {"substance": "KSTLNPNAKEFNPRSF L4H (KSTHNPNAKEFNPRSF)", "values": [{"measurement": "DMS-derived PSSM value, position L4", "setting": "[1]", "result": 0}]}, {"substance": "TLNPNAKEFNPRSF(averaged) T1P (PLNPNAKEFNPRSF)", "values": [{"measurement": "DMS-derived PSSM value (averaged), position T1", "setting": "[12]", "result": 0.02725}]}, {"substance": "TLNPNAKEFNPRSFSQ K7V (TLNPNAVEFNPRSFSQ)", "values": [{"measurement": "DMS-derived PSSM value, position K7", "setting": "prey ATXN2, peptide TLNPNAKEFNPRSFSQ, K = wild type", "result": 0.007815}]}, {"substance": "TLNPNAKEFNPRSF(averaged) E8Y (TLNPNAKYFNPRSF)", "values": [{"measurement": "DMS-derived PSSM value (averaged), position E8", "setting": "[5]", "result": 0.02496}]}, {"substance": "KSTLNPNAKEFNPRSF N12L (KSTLNPNAKEFLPRSF)", "values": [{"measurement": "DMS-derived PSSM value, position N12", "setting": "[2]", "result": 0}]}, {"substance": "TLNPNAKEFNPRSF(averaged) E8D (TLNPNAKDFNPRSF)", "values": [{"measurement": "DMS-derived PSSM value (averaged), position E8", "setting": "[5]", "result": 0}]}, {"substance": "KSTLNPNAKEFNPRSF N5E (KSTLEPNAKEFNPRSF)", "values": [{"measurement": "DMS-derived PSSM value, position N5", "setting": "[2]", "result": 0}]}, {"substance": "KSTLNPNAKEFNPRSF F11A (KSTLNPNAKEANPRSF)", "values": [{"measurement": "DMS-derived PSSM value, position F11", "setting": "[9]", "result": 0}]}, {"substance": "KSTLNPNAKEFNPRSF A8N (KSTLNPNNKEFNPRSF)", "values": [{"measurement": "DMS-derived PSSM value, position A8", "setting": "[10]", "result": 0}]}, {"substance": "KSTLNPNAKEFNPRSF S15H (KSTLNPNAKEFNPRHF)", "values": [{"measurement": "DMS-derived PSSM value, position S15", "setting": "prey ATXN2, peptide KSTLNPNAKEFNPRSF, S = wild type", "result": 0.1165}]}, {"substance": "TLNPNAKEFNPRSF(averaged) K7A (TLNPNAAEFNPRSF)", "values": [{"measurement": "DMS-derived PSSM value (averaged), position K7", "setting": "[11]", "result": 0.1204}]}, {"substance": "TLNPNAKEFNPRSF(averaged) R12L (TLNPNAKEFNPLSF)", "values": [{"measurement": "DMS-derived PSSM value (averaged), position R12", "setting": "prey ATXN2, TLNPNAKEFNPRSF(averaged) over the two overlapping peptides, R = wild type", "result": 0.02116}]}, {"substance": "TLNPNAKEFNPRSF(averaged) T1A (ALNPNAKEFNPRSF)", "values": [{"measurement": "DMS-derived PSSM value (averaged), position T1", "setting": "[12]", "result": 0.03742}]}, {"substance": "TLNPNAKEFNPRSFSQ R12H (TLNPNAKEFNPHSFSQ)", "values": [{"measurement": "DMS-derived PSSM value, position R12", "setting": "[8]", "result": 0.186}]}, {"substance": "TLNPNAKEFNPRSF(averaged) A6D (TLNPNDKEFNPRSF)", "values": [{"measurement": "DMS-derived PSSM value (averaged), position A6", "setting": "prey ATXN2, TLNPNAKEFNPRSF(averaged) over the two overlapping peptides, A = wild type", "result": 0}]}]}
